PubChem BioAssay AID179 (DTP/NCI, 2004)
Values joined by “and” are separate entries in the source; they are usually repeats but may differ in a detail not shown here. Equal values may be shown once. Active and inactive are the calls of the source.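 How the source made its calls: active means compounds giving half or more protection of infected cells from virus-caused growth loss, again on retest; inactive means the rest.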

Tested on: CEM cells HIV-1 protection, formazan growth assay
Assay: NCI AIDS Antiviral Assay
Conditions: for IC50: measured here: growth of uninfected CEM cells
In short: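 Category rules: moderately active means at least 50% protection on retest, and confirmed active means 100% protection reproducibly. The underlying data came from a formazan growth assay in HIV-1-infected CEM cells.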

N#CC(NCCc1ccccc1)c1ccc(C(C#N)NCCc2ccccc2)cc1 (stereo unspecified)
EC50: > 200 µM | IC50: 10.5 µM

C=CCCC12CCCC(=O)C1Sc1ccc3ccccc3c12 (stereo unspecified)
EC50: > 12.3 µM | IC50: > 12.3 µM

COc1cc(OC)cc(-n2c(N)c(-c3nc4ccccc4n3C)c3ccc([N+](=O)[O-])cc3c2=O)c1
EC50: > 200 µM | IC50: > 200 µM

CCN(CCO)c1ccc(N=O)cc1
EC50: > 200 µM | IC50: 11.5 µM

COc1ccc(Nc2nc3ccc(C(F)(F)F)cc3nc2-c2ccccc2)cc1OC
EC50: > 17 µM | IC50: > 17 µM

N#Cc1c2c(c(Cl)n3c1nc1ccccc13)CCCC2
EC50: > 3.72 µM | IC50: > 3.72 µM

C=[N+](CNC(=O)CNC(=O)C(Cc1ccccc1)NC(=O)OC(C)(C)C)C(=O)CNC(=O)C(Cc1ccccc1)NC(=O)OC(C)(C)C (stereo unspecified)
EC50: > 100 µM | IC50: > 100 µM

C=CC[P+](c1ccccc1)(c1ccccc1)c1ccccc1
EC50: > 20 µM | IC50: 0.562 µM and 0.427 µM

CC1C=CC(C(=O)O)C2C(=O)OC(=O)C12 (stereo unspecified)
EC50: > 1200 µM | IC50: > 1200 µM

O=C1C2C3C=CC(CC3)C2C(=O)C2C3C=CC(C3)C12 (stereo unspecified)
EC50: > 200 µM | IC50: 129 µM

O=c1cc(NNc2cccc3ccccc23)[nH]c(=O)[nH]1
EC50: > 200 µM | IC50: 4.9 µM

O=C(NC(=O)c1cc(-c2ccccc2)n[nH]1)c1ccccc1
EC50: > 200 µM | IC50: 123 µM

COc1ccc(CC(CO)NC(=O)OCc2ccccc2)cc1Oc1ccc(CC(CO)NC(=O)OCc2ccccc2)cc1 (stereo unspecified)
EC50: > 200 µM | IC50: 10 µM

Cc1[nH]nc2c1NC(=O)OC(C)(C)C2
EC50: > 479 µM | IC50: > 479 µM

COc1ccccc1OC(=O)/C=C/c1ccccc1
EC50: > 200 µM | IC50: 3.72 µM

CN1CCc2cc(O)c3cc2C1Cc1ccc(cc1)Oc1cc(ccc1O)CC1c2c(cc4c(c2O3)OCO4)CCN1C (stereo unspecified)
outcome: inactive

CC1OC(OCC2OC(Oc3c(-c4ccc(O)cc4)oc4cc(OC5OC(C)C(O)C(O)C5O)cc(O)c4c3=O)C(O)C(O)C2O)C(O)C(O)C1O (stereo unspecified)
outcome: active

CC1CN=C(NCc2ccccc2)S1 (stereo unspecified)
EC50: > 200 µM | IC50: > 200 µM

CC[CH2][Sn]([CH2]CC)([O]C(=O)Cc1ccc(F)cc1)[O][Sn]([CH2]CC)([CH2]CC)[O]C(=O)Cc1ccc(F)cc1
EC50: > 5.13 µM | IC50: 3.24 µM

COc1cc(CC2C(O)C3CCN2CC3)cc(OC)c1OC (stereo unspecified)
outcome: inactive

O=C(C(=Cc1ccc(F)cc1)C(=O)c1ccccc1)c1ccccc1
EC50: > 110 µM | IC50: > 100 µM

COC(=O)N1CC[C@@H]2CCC=C(c3cccc4c3OCO4)[C@@H]21
outcome: inactive

Cc1ccccc1N1C(=O)CC2(CCCC2)C1=O
EC50: > 363 µM | IC50: 214 µM

CCN(CC)C(=O)c1ccc(C)c(N=NN(C)C)c1
EC50: > 501 µM | IC50: 316 µM

C/C(=N\NC(=S)N1CC2CCC(CC2)C1)c1nccs1
EC50: > 115 µM | IC50: 0.363 µM

Cn1ccnc1SC(F)(F)c1nc2ccccc2o1
EC50: > 200 µM | IC50: 148 µM

COc1ccc2c(c1)[n+](=O)c(C(=O)C/C(=N/NC(=O)C[N+](C)(C)C)C(=O)Nc1cccc(C)c1C)c(C)n2O
EC50: > 6.31 µM | IC50: > 6.31 µM

COc1cccc2c1C(=O)c1c(O)c3c(c(O)c1C2=O)C[C@@](O)(C(C)=O)C[C@@H]3OC1CC(N)C(O)C(C)O1 (stereo partly specified)
EC50: > 4.47 µM | IC50: 0.0038 µM

COc1cc2nn(-c3ccccc3)nc2c2nonc12
EC50: > 200 µM | IC50: > 200 µM

COc1ccc(C2OCCN2C)cc1 (stereo unspecified)
EC50: > 200 µM | IC50: > 200 µM

CC1=C(C2=C(C)C(=O)C(=O)c3cc(C)ccc32)c2ccc(C)cc2C(=O)C1=O
EC50: > 200 µM | IC50: 0.0631 µM

CS(=O)(=O)c1ccc(NNc2cc(=O)[nH]c(=O)[nH]2)cc1
EC50: > 200 µM | IC50: 70.8 µM

Clc1cnnc2nc[nH]c12
EC50: > 1150 µM | IC50: 135 µM

Cc1cccc2c1Oc1cc(Cl)ccc1C2NC(=O)CCN1CCCCC1 (stereo unspecified)
EC50: > 200 µM | IC50: 11.2 µM

COc1ccc2nc3cc(Cl)ccc3c(Sc3ccc([N+](=O)[O-])cc3)c2c1
EC50: > 4.79 µM | IC50: > 4.79 µM

O=C1C2C3SC(c4c3ccc3ccccc43)C2C(=O)N1c1ccccc1 (stereo unspecified)
EC50: > 2.95 µM | IC50: > 2.95 µM

CC(NCCNC(C)c1cccnc1)c1cccnc1 (stereo unspecified)
EC50: > 200 µM | IC50: > 200 µM

N=c1ccn2c(n1)OC1C(OP(=O)(O)O)C(CO)OC12 (stereo unspecified)
EC50: > 200 µM | IC50: 0.437 µM

Cc1cc(N(CCC#N)CCC#N)ccc1/C=C1N=C(/C=C\c2ccccc2)N(NC(=O)CC(=O)Nc2ccccc2Cl)C\1=O
outcome: inactive

O=C1/C(=C/c2ccccc2F)Cc2ccccc21
EC50: > 21.9 µM | IC50: > 21.9 µM

CN(C)NC1=NS(=O)(=O)c2cc3c(=O)n(C)[nH]c3cc2S1
EC50: > 200 µM | IC50: 138 µM

COc1cc(-c2cc(CCC(=O)Nc3ccccc3[N+](=O)[O-])n(-c3ccc([N+](=O)[O-])cc3[N+](=O)[O-])n2)ccc1O
EC50: > 47.9 µM | IC50: > 47.9 µM

CC(C)C(NCc1c(O)ccc2c(-c3ccccc3)cc(=O)oc12)C(=O)O (stereo unspecified)
EC50: > 200 µM | IC50: > 200 µM
